# Tests used:
# Mycobacterium kansasii = assay: Antimycobacterial activity against Mycobacterium kansasii ATCC 12478 after 7 days under normoxic condition by microplate Alamar blue assay; type: functional; settings: ATCC 12478, 168 h
# in vitro = settings: monkey, Vero cells
# Description: Selectivity index, ratio of IC50 for African green monkey Vero cells to MIC90 for Mycobacterium tuberculosis H37Rv ATCC 27294 under normoxic condition
# Escherichia coli = assay: Antibacterial activity against Escherichia coli ATCC 25922 after 16 to 20 hrs; type: functional
# Mycobacterium avium = assay: Antimycobacterial activity against Mycobacterium avium ATCC 15769 after 7 days under normoxic condition by microplate Alamar blue assay; type: functional; settings: ATCC 15769, 168 h
# Staphylococcus aureus = assay: Antibacterial activity against Staphylococcus aureus ATCC 29213 after 16 to 20 hrs; type: functional
# [1] = system: Mycolicibacterium smegmatis; assay: Antimycobacterial activity against Mycobacterium smegmatis ATCC MC2155 after 7 days under normoxic condition by microplate Alamar blue assay; type: functional; settings: str. MC2 155, 168 h
# Mycobacterium marinum = assay: Antimycobacterial activity against Mycobacterium marinum ATCC 927 after 7 days under normoxic condition by microplate Alamar blue assay; type: functional; settings: ATCC 927, 168 h
# [2] = system: Mycobacteroides abscessus; assay: Antimycobacterial activity against Mycobacterium abscessus ATCC 19977 after 7 days under normoxic condition by microplate Alamar blue assay; type: functional; settings: ATCC 19977, 168 h
# [3] = system: Mycobacterium tuberculosis; assay: microbe, parasite or virus in culture; type: functional; settings: H37Rv ATCC 27294, 168 h
# Description: Antitubercular activity against Mycobacterium tuberculosis H37Rv ATCC 27294 after 7 days under normoxic condition by microplate Alamar blue assay
# Candida albicans = assay: Antifungal activity against Candida albicans ATCC 90028 after 36 to 48 hrs; type: functional
# [4] = system: Mycobacterium tuberculosis; assay: Antitubercular activity against Mycobacterium tuberculosis H37Rv ATCC 27294 treated for 10 days under hypoxic condition followed by 28 hrs of normoxic recovery; type: functional
# Mycobacteroides chelonae = assay: Antimycobacterial activity against Mycobacterium chelonae ATCC 35752 after 7 days under normoxic condition by microplate Alamar blue assay; type: functional; settings: ATCC 35752, 168 h
Compound,MIC90 (Mycobacterium kansasii),selectivity ratio (in vitro),MIC90 (Escherichia coli),MIC90 (Mycobacterium avium),MIC90 (Staphylococcus aureus),MIC90 [1],MIC90 (Mycobacterium marinum),MIC90 [2],MIC90 [3],MIC90 (Candida albicans),MIC90 [4],MIC90 (Mycobacteroides chelonae)
CC(C)(C)c1ccc(C(=O)/C=C/c2ccc([N+](=O)[O-])s2)cc1,0.92 µM,454,> 10 µM,1.08 µM,> 10 µM,> 10 µM,> 10 µM,> 10 µM,0.22 µM,> 10 µM,4.18 µM,> 10 µM
COc1ccc(/C=C/C(=O)c2cccc(I)c2)cc1,9.4 µM,20,> 10 µM,9.64 µM,> 10 µM,> 10 µM,> 10 µM,> 10 µM,4.9 µM,> 10 µM,> 10 µM,> 10 µM
O=C(/C=C/c1ccc([N+](=O)[O-])o1)c1ccc(I)cc1,0.59 µM,166,> 10 µM,2.38 µM,> 10 µM,4.62 µM,> 10 µM,> 10 µM,0.6 µM,> 10 µM,4.12 µM,> 10 µM
O=C(/C=C/c1ccc([N+](=O)[O-])o1)c1ccc(-c2ccccc2)cc1,0.49 µM,25,> 10 µM,1.27 µM,> 10 µM,> 10 µM,> 10 µM,> 10 µM,3.91 µM,> 10 µM,3.18 µM,> 10 µM
CSc1ccc(C(=O)/C=C/c2ccc([N+](=O)[O-])s2)cc1,3.86 µM,222,> 10 µM,6.89 µM,> 10 µM,> 10 µM,> 10 µM,> 10 µM,0.45 µM,> 10 µM,5.96 µM,> 10 µM
COc1ccc(/C=C/C(=O)c2cccc(Br)c2)cc1,9.21 µM,11,> 10 µM,9.82 µM,> 10 µM,> 10 µM,> 10 µM,> 10 µM,8.54 µM,> 10 µM,8.2 µM,> 10 µM
O=C(/C=C/c1ccc([N+](=O)[O-])o1)c1cccc(Br)c1,1.65 µM,52,> 10 µM,2.95 µM,1.68 µM,4.84 µM,> 10 µM,> 10 µM,1.32 µM,> 10 µM,5.65 µM,> 10 µM
Cc1ccccc1C(=O)/C=C/c1ccc([N+](=O)[O-])o1,1.16 µM,41,> 10 µM,3.04 µM,1.09 µM,9.5 µM,> 10 µM,> 10 µM,0.57 µM,6.36 µM,4.59 µM,> 10 µM
